Data as given in patent publication US8030336B2, “Nicotinamide-based kinase inhibitors” (YM Biosciences Australia Pty Ltd, priority 2002, dated 2011).

Columns and labels:
Assay type in all cases: biochemical
human JAK3 = biological target: T1, human JAK3 (Homo sapiens, UniProt P52333); test: JAK3 kinase assay (ELISA or Alphascreen); details: read-out: Jak3 inhibition of enzyme activity
T1 construct: The kinase domain of human JAK3 was amplified from U937mRNA; His tag (from the pFastBac HTb vector) (N); made in house; host or cells: baculovirus; Sf9 for virus, High Five insect cells for production
T1 sequence (P52333 822-1111 limits assumed): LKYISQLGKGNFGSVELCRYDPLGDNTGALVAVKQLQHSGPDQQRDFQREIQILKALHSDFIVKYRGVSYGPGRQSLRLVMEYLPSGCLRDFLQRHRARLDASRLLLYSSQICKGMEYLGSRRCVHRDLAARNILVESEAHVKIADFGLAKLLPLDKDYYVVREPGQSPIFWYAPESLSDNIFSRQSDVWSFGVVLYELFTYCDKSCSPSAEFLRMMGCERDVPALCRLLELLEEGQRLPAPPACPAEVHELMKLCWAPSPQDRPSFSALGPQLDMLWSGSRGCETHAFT
Summary of the method: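 His-tagged human JAK3 kinase domain from High Five cells, ~1.5 μg per assay, in 50 mM HEPES pH 7.5, 10 mM MgCl2, 150 mM NaCl, 10 μM-1 mM ATP, 5 μM biotinylated peptide substrate. Phosphotyrosine by PY20 ELISA or Alphascreen.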

hck = hck (Homo sapiens, UniProt P08631); test: hck kinase assay (ELISA or Alphascreen); details: read-out: hck inhibition of enzyme activity
hck, sequence (P08631 262-515 limits assumed, species assumed): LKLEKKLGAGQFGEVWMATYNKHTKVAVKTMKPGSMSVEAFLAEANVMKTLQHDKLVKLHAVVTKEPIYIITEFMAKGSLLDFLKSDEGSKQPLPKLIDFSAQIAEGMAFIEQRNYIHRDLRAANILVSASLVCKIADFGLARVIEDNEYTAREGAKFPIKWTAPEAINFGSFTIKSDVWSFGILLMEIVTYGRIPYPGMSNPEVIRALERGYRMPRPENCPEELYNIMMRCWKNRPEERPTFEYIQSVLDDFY
Summary of the method: (§1)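 Affinity-purified PTK domain (~1.5 μg) phosphorylated biotinylated peptide (5 μM final) in 50 mM HEPES pH 7.5, 10 mM MgCl2, 150 mM NaCl, 10 μM-1 mM ATP. Phosphotyrosine read by PY20 ELISA or Alphascreen.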

abl = biological target: T2, abl (Homo sapiens, UniProt P00519); test: abl kinase assay (ELISA or Alphascreen); details: read-out: abl inhibition of enzyme activity
T2 sequence (P00519 242-493 limits assumed): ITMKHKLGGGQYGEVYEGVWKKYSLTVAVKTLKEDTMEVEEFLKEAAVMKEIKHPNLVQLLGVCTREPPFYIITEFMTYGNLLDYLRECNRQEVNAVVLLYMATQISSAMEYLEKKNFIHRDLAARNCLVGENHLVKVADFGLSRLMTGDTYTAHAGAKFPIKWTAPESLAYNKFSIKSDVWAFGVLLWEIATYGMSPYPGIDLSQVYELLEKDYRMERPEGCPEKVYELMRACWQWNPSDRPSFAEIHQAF
Summary of the method: as §1

Zap70 = biological target: T3, Zap70 (Homo sapiens, UniProt P43403); test: Zap70 kinase assay (ELISA or Alphascreen); details: read-out: Zap70 inhibition of enzyme activity
T3 sequence (P43403 338-600 limits assumed): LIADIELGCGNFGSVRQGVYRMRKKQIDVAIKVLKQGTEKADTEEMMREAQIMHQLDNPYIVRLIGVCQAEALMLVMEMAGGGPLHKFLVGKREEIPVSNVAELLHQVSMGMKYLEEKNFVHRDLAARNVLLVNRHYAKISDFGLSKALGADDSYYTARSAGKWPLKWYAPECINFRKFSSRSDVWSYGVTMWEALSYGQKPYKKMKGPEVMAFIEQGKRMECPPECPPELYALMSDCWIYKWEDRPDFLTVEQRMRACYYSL
Summary of the method: as §1

human JAK2 = biological target: T4, human JAK2 (Homo sapiens, UniProt O60674); test: JAK2 kinase assay (ELISA or Alphascreen); details: read-out: Jak2 inhibition of enzyme activity
T4 construct: The kinase domain of human JAK2 was amplified from U937mRNA; His tag (from the pFastBac HTc vector) (N); made in house; host or cells: baculovirus; Sf9 for virus, High Five insect cells for production
T4 sequence (O60674 849-1124 limits assumed): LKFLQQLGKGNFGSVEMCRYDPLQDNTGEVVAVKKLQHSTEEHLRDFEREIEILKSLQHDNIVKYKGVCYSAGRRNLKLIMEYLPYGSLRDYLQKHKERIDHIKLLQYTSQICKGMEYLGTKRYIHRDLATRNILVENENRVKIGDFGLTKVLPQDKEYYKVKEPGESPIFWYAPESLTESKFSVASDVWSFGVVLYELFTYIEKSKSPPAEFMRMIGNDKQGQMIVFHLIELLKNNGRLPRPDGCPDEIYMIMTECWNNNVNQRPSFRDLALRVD
Summary of the method: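 His-tagged human JAK2 kinase domain from baculovirus-infected insect cells, ~1.5 μg per assay, in 50 mM HEPES pH 7.5, 10 mM MgCl2, 150 mM NaCl, with 10 μM–1 mM ATP and 5 μM biotinylated peptide substrate. Phosphotyrosine detected by PY20 ELISA or AlphaScreen.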

fes = fes (Homo sapiens, UniProt P07332); test: fes kinase assay (ELISA or Alphascreen); details: read-out: fes inhibition of enzyme activity
fes, sequence (P07332 561-822 limits assumed, species assumed): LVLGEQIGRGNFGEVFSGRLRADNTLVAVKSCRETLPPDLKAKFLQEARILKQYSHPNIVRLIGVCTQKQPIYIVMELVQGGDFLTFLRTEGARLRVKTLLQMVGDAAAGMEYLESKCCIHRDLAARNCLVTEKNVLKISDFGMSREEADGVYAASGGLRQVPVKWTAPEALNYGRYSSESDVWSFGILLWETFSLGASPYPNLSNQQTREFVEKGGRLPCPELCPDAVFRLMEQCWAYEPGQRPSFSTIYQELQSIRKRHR
Summary of the method: as §1

fms = biological target: T5, fms (Homo sapiens, UniProt P07333); test: fms kinase assay (ELISA or Alphascreen); details: read-out: fms inhibition of enzyme activity
T5 sequence (P07333 582-910 limits assumed): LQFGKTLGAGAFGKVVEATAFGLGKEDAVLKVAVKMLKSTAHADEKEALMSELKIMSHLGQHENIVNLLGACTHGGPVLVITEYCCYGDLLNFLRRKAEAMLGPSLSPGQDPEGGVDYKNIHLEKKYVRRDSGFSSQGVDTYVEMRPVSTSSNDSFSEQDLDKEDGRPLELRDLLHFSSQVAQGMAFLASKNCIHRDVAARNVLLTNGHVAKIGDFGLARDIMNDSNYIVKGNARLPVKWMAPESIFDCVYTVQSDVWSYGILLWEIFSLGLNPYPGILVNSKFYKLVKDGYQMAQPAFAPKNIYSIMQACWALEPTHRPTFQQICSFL
Summary of the method: as §1

Row | SMILES | inhibition at 10 µM (human JAK3) | inhibition at 10 µM (hck) | inhibition at 10 µM (abl) | inhibition at 10 µM (Zap70) | inhibition at 10 µM (human JAK2) | inhibition at 10 µM (fes) | inhibition at 10 µM (fms)
1 | COc1ccc(NC(=O)c2cncc(-c3cccnc3)c2)c(OC)c1 | ≥ 50% | < 50% | < 50% | < 50% | ≥ 50% | < 50% | ≥ 50%
2 | CC(NC(=O)c1cncc(-c2cccs2)c1)c1ccc(F)cc1 (stereo not shown) | < 50% | < 50% | < 50% | < 50% | < 50% | ≥ 50% | < 50%
3 | COc1cc(-c2cncc(C(=O)Nc3ccc(F)cc3C)c2)ccc1O | < 50% | ≥ 50% | ≥ 50% | < 50% | < 50% | < 50% | < 50%
4 | COc1cccc([C@H](C)NC(=O)c2cncc(-c3ccc(F)cc3)c2)c1 | < 50% | < 50% | < 50% | ≥ 50% | < 50% | < 50% | < 50%
5 | CN(Cc1ccccc1)C(=O)c1cncc(-c2cccs2)c1 | < 50% | < 50% | < 50% | < 50% | < 50% | ≥ 50% | < 50%
6 | Cc1ccc(F)cc1NC(=O)c1cncc(-c2ccc3c(c2)OCO3)c1 | < 50% | < 50% | < 50% | < 50% | < 50% | < 50% | < 50%
7 | Cc1cc(-c2cncc(C(=O)NC(C)C)c2)cc(C)c1O | < 50% | < 50% | < 50% | ≥ 50% | < 50% | < 50% | < 50%
